Five compounds from ChEMBL document CHEMBL1201862, “PubChem BioAssay data set” (2004) can be followed below.

The nature of test [1]: NIH-3T3 fibroblast cytotoxicity, dose response, cytotoxicity control, cell-based, fluorescence, Alamar Blue, secondary assay (AID 2327).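 Note: NIH-3T3 mouse fibroblasts cultured with fluconazole at 8 µg/mL.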 The class given is functional. In general terms: Alamar Blue is a resazurin reagent that responds to reducing activity.
Test [2] addresses Luciferin 4-monooxygenase (Photinus pyralis, UniProt P08659). Briefly: Counter Screen for Luciferase-based Assay Positives. [Related pubchem assays: 620, 618, 411 ]. Background: The purpose of a counterscreen is to sort out artefacts and off-target activity.
Test [3] in a line: fluconazole-exposed Candida albicans growth modulators – fluorescence, retest, confirmation (AID 2467). The class given is functional, cell-based.
Test [4] can be described thus: HPDE-C7 pancreatic duct cell viability loss – fluorescence, HTS (AID 430). The class given is functional, cell-based. The conditions noted are these: Homo sapiens.
A short description of test [5]: microbe, parasite or virus in culture. The class given is functional. The conditions noted are these: Mycobacterium tuberculosis.
Test [6] in a line: viability loss of HPDE-C7K cells – cell-based, fluorescence, HTS, primary screen (AID 431). The class given is functional. The conditions noted are these: Homo sapiens.
Test [7] in a line: viability of PTEN-deleted HCT116 cells – cell-based, HCT116 PTEN knockout, dose response (AID 1047).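 Note: HCT116 colon tumor cells with PTEN knocked out; cells exposed to compound for 60 hours before readout; potency for loss of cell viability measured by luminescence.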 It is filed as functional.
In a further test the test system is HT-1080. Briefly: HT1080 cell viability loss – fluorescence readout (AID 620). It is filed as functional, cell-based. The conditions noted are these: Homo sapiens.
The nature of test [8]: viability of HCT116 lacking mutant beta-catenin – cell-based, human colon tumor, dose response (AID 1045).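 Note: HCT116 colon tumor cells with beta catenin knocked out; cells exposed to compound for 60 hours.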 It is filed as functional.
Test [9] addresses T1, Ubiquitin-conjugating enzyme E2 N (Homo sapiens, UniProt P61088).
T1 sequence (P61088 whole entry): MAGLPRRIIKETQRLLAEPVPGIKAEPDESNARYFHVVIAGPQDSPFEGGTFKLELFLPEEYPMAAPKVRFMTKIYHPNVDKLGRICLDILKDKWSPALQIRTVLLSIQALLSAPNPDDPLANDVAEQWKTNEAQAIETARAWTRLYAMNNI
The class given is functional.

The next test has as its target Beta-galactosidase (Escherichia coli, UniProt Q8VNN2). Briefly: detection-enzyme interference by beta-gal modulators – biochemical, E. coli enzyme, set 3, artefact control for CCR6 antagonist project, dose response (AID 504712). It is filed as functional.
In a further test the target is Nonstructural protein 1 (Influenza A virus, UniProt Q194T2). The class given is functional, Influenza A virus (A/California/07/2009(H1N1)).
The target in test [10] is Voltage-dependent T-type calcium channel subunit alpha-1H (Homo sapiens, UniProt O95180). Briefly: human CACNA1H calcium influx blockade – cell-based, synthetic library set 1, calcium flux (AID 493022). The class given is functional.
Test [11] concerns the target Envelope glycoprotein gp160 (Human immunodeficiency virus 1, UniProt Q6QLK5). Briefly: cell-free HIV fusion peptide-binding blockers – biochemical, uHTS, fluorescence dequenching, […] (AID 1986).
Test [12] has as its target T2, Tyrosine-protein phosphatase non-receptor type 7 (Homo sapiens, UniProt P35236).
T2 sequence (P35236 whole entry): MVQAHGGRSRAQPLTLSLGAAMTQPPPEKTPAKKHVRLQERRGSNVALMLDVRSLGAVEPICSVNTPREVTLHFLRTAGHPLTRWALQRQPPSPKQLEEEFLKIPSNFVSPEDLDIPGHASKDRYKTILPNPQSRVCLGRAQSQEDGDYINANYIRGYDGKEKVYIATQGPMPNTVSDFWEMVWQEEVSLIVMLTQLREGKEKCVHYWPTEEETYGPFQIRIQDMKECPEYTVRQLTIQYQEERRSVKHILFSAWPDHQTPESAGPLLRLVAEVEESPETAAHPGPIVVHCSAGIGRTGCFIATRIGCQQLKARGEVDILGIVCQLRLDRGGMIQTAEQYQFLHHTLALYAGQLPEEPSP
The class given is functional.

Test [13] has as its target T3, Voltage-gated N-type calcium channel alpha-1B subunit/Amyloid beta A4 precursor protein-binding family A member 1 (Homo sapiens, UniProt Q00975+Q02410). The class given is protein assay.
The target of test [14] is T3, Voltage-gated N-type calcium channel alpha-1B subunit/Amyloid beta A4 precursor protein-binding family A member 1. The class given is protein assay. This is another data set of the same source.
In test [15] the target is T4, Tyrosine-protein phosphatase non-receptor type 22 (Homo sapiens, UniProt Q9Y2R2).
T4 sequence (Q9Y2R2 whole entry): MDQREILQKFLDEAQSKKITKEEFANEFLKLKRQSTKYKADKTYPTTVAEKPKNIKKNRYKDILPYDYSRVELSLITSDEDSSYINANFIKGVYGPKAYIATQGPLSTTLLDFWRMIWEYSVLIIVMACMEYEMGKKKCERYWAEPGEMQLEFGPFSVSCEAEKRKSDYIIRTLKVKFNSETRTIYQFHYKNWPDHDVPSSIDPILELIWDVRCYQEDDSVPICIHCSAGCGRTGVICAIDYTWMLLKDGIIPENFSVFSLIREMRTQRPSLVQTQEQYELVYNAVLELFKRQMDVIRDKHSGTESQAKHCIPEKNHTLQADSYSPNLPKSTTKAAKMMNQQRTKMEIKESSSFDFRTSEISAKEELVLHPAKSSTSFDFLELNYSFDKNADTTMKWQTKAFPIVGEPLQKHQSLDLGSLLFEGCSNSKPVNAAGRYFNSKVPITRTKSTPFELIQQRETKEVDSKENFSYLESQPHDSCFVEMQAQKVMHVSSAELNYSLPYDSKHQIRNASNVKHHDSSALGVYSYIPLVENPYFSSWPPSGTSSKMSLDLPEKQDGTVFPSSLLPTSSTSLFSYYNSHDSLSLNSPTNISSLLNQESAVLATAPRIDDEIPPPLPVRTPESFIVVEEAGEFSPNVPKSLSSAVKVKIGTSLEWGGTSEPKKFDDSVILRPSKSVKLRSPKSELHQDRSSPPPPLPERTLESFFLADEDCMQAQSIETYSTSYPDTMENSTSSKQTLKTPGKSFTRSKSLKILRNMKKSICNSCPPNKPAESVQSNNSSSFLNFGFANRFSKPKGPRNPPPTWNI
Briefly: PTPN22 lymphoid phosphatase activity blockers – biochemical, fluorescence intensity, uHTS (AID 1779).

Test [16] addresses T4, Tyrosine-protein phosphatase non-receptor type 22. It is filed as functional.
Test [17] shares this target. It is filed as functional. This is another data set of the same source.
For test [18], the target named is Eukaryotic translation initiation factor 4E (Mus musculus, UniProt P63073). Briefly: blockers of eIF4G binding by eIF4E – biochemical, TR-FRET, dose response (AID 855).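 Note: potency for disrupting eIF4E binding to eIF4GI seen as loss of FRET.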 The class given is functional.
A further test has as its target Large T antigen (Simian virus 40, UniProt P03070). It is filed as functional, Betapolyomavirus macacae.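 Note: Confirmatory-stage PubChem screen for compounds that inhibit SV40 T antigen.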
The target in test [19] is DNA dC->dU-editing enzyme APOBEC-3A (Homo sapiens, UniProt P31941). Briefly: A3A deaminase inhibition for selectivity – biochemical, dose response (AID 504722). The class given is functional.
Test [20] has as its target DNA dC->dU-editing enzyme APOBEC-3G (Homo sapiens, UniProt Q9HC16). Briefly: Dose Response confirmation of small molecule APOBEC3G DNA Deaminase Inhibitors via a fluorescence-based single-stranded DNA deaminase assay. [Related pubchem assays (depositor defined):AID493012, AID493028]. It is filed as functional.
Test [21] concerns the target FAD-linked sulfhydryl oxidase ALR (Homo sapiens, UniProt P55789). Briefly: ALR-catalysed DTT oxidation blockers – biochemical, H2O2 detection, luminescence, cherry-pick, dose response (AID 493248).
Test [22] has as its target T5, Short transient receptor potential channel 4 (Mus musculus, UniProt Q9QUQ5).
T5 sequence (Q9QUQ5 whole entry): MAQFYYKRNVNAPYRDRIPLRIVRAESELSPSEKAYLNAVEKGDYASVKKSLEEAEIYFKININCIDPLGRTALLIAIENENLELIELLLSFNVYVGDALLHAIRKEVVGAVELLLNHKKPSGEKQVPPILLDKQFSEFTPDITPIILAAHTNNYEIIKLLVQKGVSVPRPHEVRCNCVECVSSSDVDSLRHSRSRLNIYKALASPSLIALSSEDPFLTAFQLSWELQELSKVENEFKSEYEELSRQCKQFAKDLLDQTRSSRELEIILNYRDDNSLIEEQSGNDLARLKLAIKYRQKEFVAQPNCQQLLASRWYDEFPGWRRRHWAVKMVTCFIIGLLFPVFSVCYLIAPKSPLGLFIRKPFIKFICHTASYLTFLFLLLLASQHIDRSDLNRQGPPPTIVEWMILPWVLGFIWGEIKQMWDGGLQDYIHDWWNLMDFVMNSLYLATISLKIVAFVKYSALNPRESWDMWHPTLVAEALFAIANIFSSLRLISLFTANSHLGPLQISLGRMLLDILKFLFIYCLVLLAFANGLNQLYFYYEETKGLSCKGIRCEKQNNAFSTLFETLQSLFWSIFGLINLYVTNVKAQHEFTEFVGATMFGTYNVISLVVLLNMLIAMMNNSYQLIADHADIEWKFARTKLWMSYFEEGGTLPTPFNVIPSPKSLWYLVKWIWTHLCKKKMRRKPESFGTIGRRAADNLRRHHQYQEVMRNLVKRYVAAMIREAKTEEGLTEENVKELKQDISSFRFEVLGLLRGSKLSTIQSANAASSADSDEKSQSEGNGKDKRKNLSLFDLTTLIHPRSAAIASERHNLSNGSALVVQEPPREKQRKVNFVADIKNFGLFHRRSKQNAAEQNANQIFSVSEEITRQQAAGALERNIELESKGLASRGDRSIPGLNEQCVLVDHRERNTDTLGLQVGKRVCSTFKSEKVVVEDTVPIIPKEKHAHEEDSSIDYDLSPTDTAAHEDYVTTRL
Briefly: potentiation of DAMGO-evoked TRPC4 calcium signal – cell-based, HEK293 TRPC4/mu-opioid, Fluo-4 calcium, EC20 DAMGO, dose response (AID 434941).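 Note: HEK293 cells coexpressing TRPC4 and mu opioid receptor stimulated by EC20 DAMGO.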 It is filed as functional.

Calls of active or inactive are those of the source. A value given as a limit tells only on which side of the number the result lay.

T3 sequence (Q00975 whole entry): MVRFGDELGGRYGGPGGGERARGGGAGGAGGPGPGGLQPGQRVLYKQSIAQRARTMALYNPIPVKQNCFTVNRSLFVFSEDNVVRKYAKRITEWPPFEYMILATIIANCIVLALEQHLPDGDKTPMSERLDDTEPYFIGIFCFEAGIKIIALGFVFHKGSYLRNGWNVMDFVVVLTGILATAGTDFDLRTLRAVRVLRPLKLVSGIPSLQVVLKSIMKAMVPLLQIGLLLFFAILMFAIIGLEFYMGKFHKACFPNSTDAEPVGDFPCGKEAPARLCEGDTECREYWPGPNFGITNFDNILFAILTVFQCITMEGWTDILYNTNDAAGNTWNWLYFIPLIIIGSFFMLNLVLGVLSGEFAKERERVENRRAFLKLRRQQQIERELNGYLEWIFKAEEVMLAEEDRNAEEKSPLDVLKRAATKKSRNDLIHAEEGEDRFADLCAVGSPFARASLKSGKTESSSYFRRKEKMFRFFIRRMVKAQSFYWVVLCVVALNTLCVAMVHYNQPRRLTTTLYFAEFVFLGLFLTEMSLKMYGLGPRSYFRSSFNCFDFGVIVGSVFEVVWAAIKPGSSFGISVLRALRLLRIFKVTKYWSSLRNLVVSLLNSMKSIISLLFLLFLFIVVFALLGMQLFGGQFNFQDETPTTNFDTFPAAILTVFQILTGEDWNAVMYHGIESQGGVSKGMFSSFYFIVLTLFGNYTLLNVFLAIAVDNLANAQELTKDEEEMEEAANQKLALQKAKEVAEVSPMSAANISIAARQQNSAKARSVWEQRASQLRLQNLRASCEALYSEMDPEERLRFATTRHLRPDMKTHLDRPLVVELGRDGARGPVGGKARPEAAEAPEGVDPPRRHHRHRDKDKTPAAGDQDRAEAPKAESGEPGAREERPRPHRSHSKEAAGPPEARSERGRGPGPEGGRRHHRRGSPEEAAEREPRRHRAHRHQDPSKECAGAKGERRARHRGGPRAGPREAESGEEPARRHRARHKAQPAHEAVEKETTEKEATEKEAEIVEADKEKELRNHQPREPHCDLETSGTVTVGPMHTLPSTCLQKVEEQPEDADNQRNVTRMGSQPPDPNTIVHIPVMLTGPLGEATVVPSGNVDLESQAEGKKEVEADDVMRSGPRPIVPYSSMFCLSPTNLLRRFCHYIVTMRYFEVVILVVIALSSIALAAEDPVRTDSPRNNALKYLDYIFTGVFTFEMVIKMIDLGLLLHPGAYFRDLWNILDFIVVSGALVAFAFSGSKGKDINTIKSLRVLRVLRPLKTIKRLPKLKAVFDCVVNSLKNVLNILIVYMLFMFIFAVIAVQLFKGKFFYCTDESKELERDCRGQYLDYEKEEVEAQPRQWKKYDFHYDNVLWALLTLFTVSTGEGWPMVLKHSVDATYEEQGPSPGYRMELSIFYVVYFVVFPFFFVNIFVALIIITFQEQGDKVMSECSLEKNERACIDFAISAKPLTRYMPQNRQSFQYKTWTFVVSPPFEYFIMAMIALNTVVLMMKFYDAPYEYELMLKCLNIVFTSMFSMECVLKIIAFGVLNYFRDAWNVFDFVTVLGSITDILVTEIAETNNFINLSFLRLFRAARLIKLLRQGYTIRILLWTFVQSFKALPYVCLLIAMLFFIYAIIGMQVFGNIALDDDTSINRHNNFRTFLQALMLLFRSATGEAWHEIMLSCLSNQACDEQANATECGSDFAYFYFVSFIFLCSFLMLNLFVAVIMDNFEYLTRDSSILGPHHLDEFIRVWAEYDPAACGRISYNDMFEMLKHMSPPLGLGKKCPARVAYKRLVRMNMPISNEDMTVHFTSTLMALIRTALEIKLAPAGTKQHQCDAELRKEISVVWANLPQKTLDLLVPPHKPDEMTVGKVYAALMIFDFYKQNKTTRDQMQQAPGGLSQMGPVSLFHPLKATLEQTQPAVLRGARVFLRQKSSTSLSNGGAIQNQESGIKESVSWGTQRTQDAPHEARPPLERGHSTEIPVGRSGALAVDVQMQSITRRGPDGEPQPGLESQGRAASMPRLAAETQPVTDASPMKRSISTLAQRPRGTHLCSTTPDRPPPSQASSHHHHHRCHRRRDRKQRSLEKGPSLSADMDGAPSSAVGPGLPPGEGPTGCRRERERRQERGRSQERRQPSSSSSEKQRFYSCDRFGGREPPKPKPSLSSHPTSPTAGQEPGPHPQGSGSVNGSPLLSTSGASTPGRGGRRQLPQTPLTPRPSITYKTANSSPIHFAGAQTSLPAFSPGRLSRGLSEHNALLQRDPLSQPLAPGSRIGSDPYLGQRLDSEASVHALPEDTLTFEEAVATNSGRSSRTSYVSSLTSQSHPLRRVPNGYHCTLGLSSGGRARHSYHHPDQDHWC
T3 sequence (Q02410 whole entry): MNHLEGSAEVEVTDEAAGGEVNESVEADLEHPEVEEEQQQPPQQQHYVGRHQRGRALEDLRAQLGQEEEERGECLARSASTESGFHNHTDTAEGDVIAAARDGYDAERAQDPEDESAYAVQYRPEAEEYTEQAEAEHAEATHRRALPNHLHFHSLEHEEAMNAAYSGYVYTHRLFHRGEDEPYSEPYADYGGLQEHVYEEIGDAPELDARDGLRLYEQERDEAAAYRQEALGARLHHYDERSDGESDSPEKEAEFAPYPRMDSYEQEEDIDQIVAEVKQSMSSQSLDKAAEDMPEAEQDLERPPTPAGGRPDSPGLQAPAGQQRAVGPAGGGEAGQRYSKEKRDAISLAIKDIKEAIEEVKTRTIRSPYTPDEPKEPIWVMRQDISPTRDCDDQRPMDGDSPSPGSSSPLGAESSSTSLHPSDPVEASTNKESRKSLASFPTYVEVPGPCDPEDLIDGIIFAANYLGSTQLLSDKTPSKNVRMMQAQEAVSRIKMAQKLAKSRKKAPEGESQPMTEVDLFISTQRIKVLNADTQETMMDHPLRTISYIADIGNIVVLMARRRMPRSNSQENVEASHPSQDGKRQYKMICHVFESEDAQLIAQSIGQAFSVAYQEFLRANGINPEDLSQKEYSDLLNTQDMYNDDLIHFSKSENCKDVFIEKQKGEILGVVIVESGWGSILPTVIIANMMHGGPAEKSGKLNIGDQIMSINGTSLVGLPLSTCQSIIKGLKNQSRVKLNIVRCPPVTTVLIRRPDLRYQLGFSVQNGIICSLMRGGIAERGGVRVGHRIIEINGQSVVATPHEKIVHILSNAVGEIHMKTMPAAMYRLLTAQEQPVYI
Sequence of Large T antigen (P03070 whole entry): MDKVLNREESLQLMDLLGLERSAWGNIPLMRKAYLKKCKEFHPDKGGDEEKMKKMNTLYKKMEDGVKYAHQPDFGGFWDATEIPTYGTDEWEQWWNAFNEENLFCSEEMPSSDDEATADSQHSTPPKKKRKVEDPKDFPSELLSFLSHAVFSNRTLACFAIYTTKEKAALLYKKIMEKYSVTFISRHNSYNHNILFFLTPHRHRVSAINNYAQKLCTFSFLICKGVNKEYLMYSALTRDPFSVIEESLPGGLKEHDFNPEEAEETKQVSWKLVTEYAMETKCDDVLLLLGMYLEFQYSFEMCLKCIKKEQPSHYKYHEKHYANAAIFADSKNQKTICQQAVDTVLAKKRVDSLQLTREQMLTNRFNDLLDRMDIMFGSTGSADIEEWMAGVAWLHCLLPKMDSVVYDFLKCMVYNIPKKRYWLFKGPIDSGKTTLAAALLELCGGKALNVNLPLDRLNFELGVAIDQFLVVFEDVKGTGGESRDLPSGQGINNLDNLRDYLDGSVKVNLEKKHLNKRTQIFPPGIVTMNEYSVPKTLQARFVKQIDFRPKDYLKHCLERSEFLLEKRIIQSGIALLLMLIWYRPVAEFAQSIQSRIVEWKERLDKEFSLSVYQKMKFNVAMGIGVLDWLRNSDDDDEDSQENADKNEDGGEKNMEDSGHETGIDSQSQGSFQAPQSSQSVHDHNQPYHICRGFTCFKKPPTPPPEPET
Sequence of DNA dC->dU-editing enzyme APOBEC-3G (Q9HC16 whole entry): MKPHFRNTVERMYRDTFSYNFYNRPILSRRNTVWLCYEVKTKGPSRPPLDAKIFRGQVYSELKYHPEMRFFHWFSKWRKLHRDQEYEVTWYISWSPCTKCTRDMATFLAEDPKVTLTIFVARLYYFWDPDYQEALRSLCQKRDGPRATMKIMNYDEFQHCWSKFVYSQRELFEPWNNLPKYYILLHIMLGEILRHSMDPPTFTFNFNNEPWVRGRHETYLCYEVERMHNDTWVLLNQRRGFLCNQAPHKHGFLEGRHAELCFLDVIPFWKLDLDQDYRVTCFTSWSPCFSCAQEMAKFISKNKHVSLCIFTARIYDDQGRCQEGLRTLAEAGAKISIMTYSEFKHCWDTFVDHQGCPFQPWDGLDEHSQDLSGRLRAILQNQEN
Sequence of Envelope glycoprotein gp160 (Q6QLK5 whole entry, the tested form may be a part): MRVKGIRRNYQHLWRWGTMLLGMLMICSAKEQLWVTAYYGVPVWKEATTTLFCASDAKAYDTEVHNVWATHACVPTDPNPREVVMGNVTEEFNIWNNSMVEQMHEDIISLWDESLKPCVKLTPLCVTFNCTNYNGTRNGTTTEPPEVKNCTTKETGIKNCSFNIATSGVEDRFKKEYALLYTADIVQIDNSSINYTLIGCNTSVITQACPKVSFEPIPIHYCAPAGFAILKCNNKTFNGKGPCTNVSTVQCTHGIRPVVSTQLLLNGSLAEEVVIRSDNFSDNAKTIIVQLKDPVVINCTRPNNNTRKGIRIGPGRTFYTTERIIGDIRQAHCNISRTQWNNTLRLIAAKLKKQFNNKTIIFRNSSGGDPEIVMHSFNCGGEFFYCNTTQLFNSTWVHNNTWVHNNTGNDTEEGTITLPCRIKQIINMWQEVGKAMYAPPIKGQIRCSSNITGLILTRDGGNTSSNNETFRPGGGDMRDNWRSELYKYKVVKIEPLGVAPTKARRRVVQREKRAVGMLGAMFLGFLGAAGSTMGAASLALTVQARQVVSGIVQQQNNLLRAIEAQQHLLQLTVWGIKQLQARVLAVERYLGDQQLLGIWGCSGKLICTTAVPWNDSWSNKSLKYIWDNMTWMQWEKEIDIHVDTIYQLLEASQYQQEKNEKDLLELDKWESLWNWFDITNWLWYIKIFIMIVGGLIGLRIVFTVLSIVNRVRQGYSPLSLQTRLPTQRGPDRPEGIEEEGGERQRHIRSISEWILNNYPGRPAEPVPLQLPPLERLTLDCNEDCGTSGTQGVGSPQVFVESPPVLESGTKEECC

For `CN1CCN(CC(=O)N2CCn3c4c(c5cc(C6CCCCC6)ccc53)CCCC42)CC1` (stereo unspecified), the EC50 (usually the concentration that produces a half-maximal response) was > 150 µM (inconclusive) in test [1]; 0.84 µM (active) in test [2]; > 38 µM (not active) in test [3]; 3.48 µM (active) in test [4]; 4.39 µM (active) in [6]; 3.99 µM (active) in test [7]. For the same compound, the concentration for a half-maximal effect (EC50) is 14.7 µM (active) with HT-1080 and 3.56 µM (active) in [8]. Moreover, the CC50 in [5] is 6.93 µM (active). In addition, the figures for the IC50 (in [9]; on Beta-galactosidase; at Nonstructural protein 1) were > 20 µM (inactive), > 66.6 µM (inactive) and 18.9 µM (active), respectively.

For `O=C(COc1ccccc1Cl)Nc1nnc(-c2ccc3c(c2)OCO3)o1`, in test [10], the EC50 was 3 µM (active).

On to `CCOc1cc(/C=N/NC(=O)c2ccc(-c3csc(Nc4ccc(C)cc4)n3)cc2)ccc1OCC(=O)O`, for which the concentration for half-maximal inhibition (IC50) (commonly the concentration that inhibits the measured activity by half) in test [11] was 7.29 µM (active); in test [12], 3.93 µM (active); in [13] it was 11.1 µM (active); in test [14] it was 49.1 µM (active); in test [15], 8.71 µM (active); in test [16] it was 6.63 µM (active). For the same compound, the values for the IC50 in [17] and in test [18] were 4.68 µM (active) and 50 µM (inactive), respectively.

Consider `COc1cccc(/C=N/n2c(S)nnc2-c2cc(C)[nH]n2)c1O`, for which the IC50 was 16 µM (active) on Large T antigen, > 100 µM (inactive) in test [19] and 4.07 µM (active) in [20]. Moreover, in [21], the AC50 – broadly, the concentration at which the activity in the assay is half-maximal – was 3.54 µM (active).

`Cc1cccc(/C=N/NC(=O)c2cc(Br)ccc2O)n1`: the half-maximal effective concentration (EC50) in test [22] was 4.22 µM (active).
